Data taken from patent publication US20200270588A1, “GLUCOSYL TRANSFERASE POLYPEPTIDES AND METHODS OF USE” (Syngenta Participations AG, priority 2017, published 2020).

Tests used:
Format in all cases: biochemical
[1] = molecular target: T1, Zea mays bx9 glucosyl transferase (C-terminally his tagged SEQ ID NO: 1) (Zea mays, UniProt B4G072); assay: UDP-Glo glucosyl transferase assay, purified enzyme; conditions: for Activity: herbicide mM: V 0.300, VI 0.250, VII 0.210, IV, VIII, XI, XXI, XX, XVIII, XVI, XV, XIV 0.200, others 1.000
T1 construct: His tag (C); made in house; host or cells: E. coli BL21 (DE3), pET24a
T1 sequence (B4G072 1-462): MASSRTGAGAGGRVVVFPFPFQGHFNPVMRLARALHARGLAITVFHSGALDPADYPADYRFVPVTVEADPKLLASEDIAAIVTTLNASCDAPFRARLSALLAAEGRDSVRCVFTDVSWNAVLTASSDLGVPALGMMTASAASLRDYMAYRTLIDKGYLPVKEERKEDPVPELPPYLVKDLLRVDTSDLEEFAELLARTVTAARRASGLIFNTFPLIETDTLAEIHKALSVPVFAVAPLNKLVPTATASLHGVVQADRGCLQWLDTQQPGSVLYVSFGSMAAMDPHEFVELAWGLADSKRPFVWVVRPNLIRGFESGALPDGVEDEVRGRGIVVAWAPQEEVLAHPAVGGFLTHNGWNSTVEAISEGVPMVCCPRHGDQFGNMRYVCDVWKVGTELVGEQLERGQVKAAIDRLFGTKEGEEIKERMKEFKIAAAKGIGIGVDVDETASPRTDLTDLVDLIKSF
Experimental: (§1) Glucosyl transferase activity is assayed via measurement of acceptor substrate-dependent production of UDP from ultrapure UDP-glucose using the Promega UDP-Glo™ method and according to the manufacturer's instructions. Assays are run in 96 well microtiter plates.
(§2) Enzyme, typically at a stock concentration of ˜2 mg/ml is diluted to an appropriate concentration in 50 mM K^+ Hepes buffer at pH7.5 containing 0.5 mg/mL bovine serum albumin (BSA) and 5 ul aliquots of this diluted enzyme added to each well of a Perkin Elmer white ½ area 96 well plate. […] Assays are run for an appropriate time (usually 10 to 60 min) so that the amount of UDP formed lies within the most nearly linear part of the UDP standard curve and are stopped with the addition and mixing of 25 ul UDP-Glo™ detection reagent (prepared as described below). Plates are then incubated at room temperature for 60 minutes and then read in a luminescence plate reader (Perkin Elmer Envision 2130 Multilabel Reader). A UDP standard curve is run alongside each set of assays and reagent blank control assays run with DMSO in place of test herbicide. Typically, 300 pmol of UDP corresponds to a Relative Luminescence Unit (RLU) reading of about 1.5E7 and the response curve between 0 and 600 pmol is fitted to a polynomial function (see for example FIG. 2).
(§3) The UDP-Glo™ reagents are made up and used according to the manufacturer's instructions. Thus, Nucleotide Detection Buffer and ATP are combined to make nucleotide detection reagent (NDR) dispensed into aliquots and frozen to be freshly thawed before use.
(§4) Km and kcat values in respect of UDP-glucose are derived by carrying out experiments to measure initial rates over a suitable range of concentrations of UDP glucose out at a fixed near saturating concentration of acceptor substrate. Best fit values of kcat, Km and kcat/Km are obtained by direct fitting of the data to the Michaelis-Menten equation using Graphpad Prism™ software.

[2] = molecular target: T2, SEQ ID NO 20, mutant of Zea mays bx9 glucosyl transferase (Zea mays, UniProt B4G072, A281K/A334K/F21Y/L194V/M279F/S117V); conditions: lower block, concentration printed only in upper block: V 0.300, VII 0.210; IV, VIII, XI, XXI, XX, XVIII, XVI, XV, XIV 0.200; others 1.000 mM
T2 construct: His tag (C); made in house
Experimental: as §1
as §2, with “herbicide.” for “herbicide. Typically, 300 pmol of UDP corresponds to a Relative Luminescence Unit (RLU) reading of about 1.5E7 and the response curve between 0 and 600 pmol is fitted to a polynomial function (see for example FIG. 2).”
as §3, §4
All of these proteins were C-terminally his-tagged, expressed and purified as described in Example 1. Assays were run and analyzed as described in example 1.

[3] = molecular target: T3, SEQ ID NO 22, mutant of Zea mays bx9 glucosyl transferase (Zea mays, UniProt B4G072, A334K/F21Y/M279F/S117V/T220P); assay: UDP-Glo glucosyl transferase assay, purified enzyme; conditions: lower block, concentration printed only in upper block: V 0.300, VII 0.210; IV, VIII, XI, XXI, XX, XVIII, XVI, XV, XIV 0.200; others 1.000 mM
T3 construct: His tag (C); made in house
Experimental: as §1, §2, §3, §4
(§5) Variants of C-terminally his tagged SEQ ID No:1 (w/t bx9 from Zea mays), exemplified as SEQ ID 16-30, were cloned, purified and assayed as described in Example 1. FIG. 4 depicts the data from some experiments to determine the kinetic parameters of some of these variants in respect of herbicide VI and table 12 summarizes the estimates of kinetic parameters obtained from further such experiments in respect of a range of herbicides.
(§6) Table 13 summarizes the results obtained from assays, run as described in Example 1, using a variety of alcohol and aminal PSII herbicides as substrates of the Zea mays bx9 w/t (i.e. C-terminally his tagged SEQ ID no 1) and various mutants of the same, selected from SEQ ID NO: 16-30). All of these proteins were C-terminally his-tagged, expressed and purified as described in Example 1. Assays were run and analyzed as described in example 1. It is seen that various of the mutations herein and combinations thereof led to significant improvements (over the w/t bx9 protein) in catalytic activity versus various of the herbicides and that these improvements are often of sufficient magnitude to be useful for conferring improved herbicide tolerance upon crop. This is especially the case given that even the unmutated w/t bx9 enzyme which has only modest glucosyl transferase activity (for example against compounds V and VI) was nevertheless adequately active to confer significant herbicide tolerance in the glass house (as shown in example 9) even without mutational improvement. It is also seen that particular mutations can lead to very much improved activity in respect of some chemistries but not to others but that, overall, there is at least one variant within the scope of the current invention that provides significant and useful improvement in tolerance to each of the chemistries tested.

[4] = molecular target: T4, SEQ ID NO 21, mutant of Zea mays bx9 glucosyl transferase (Zea mays, UniProt B4G072, A334K/F21Y/L194V/M279F/S117V); assay: as above; conditions: lower block, concentration printed only in upper block: V 0.300, VII 0.210; IV, VIII, XI, XXI, XX, XVIII, XVI, XV, XIV 0.200; others 1.000 mM
T4 construct: His tag (C); made in house
Experimental: as §1, §2, §3, §4, §5, §6

[5] = molecular target: T5, SEQ ID NO 17, zmBX9 S117V, M279F, A334K mutant (Zea mays, UniProt B4G072, A334K/M279F/S117V); assay: as above; conditions: herbicide mM: V 0.300, VI 0.250, VII 0.210; IV, VIII, XI, XXI, XX, XVIII, XVI, XV, XIV 0.200; others 1.000
T5 construct: polypeptides were the C-terminally his-tagged; His tag (C); made in house
Experimental: as §1, §2, §3, §4, §5, §6

[6] = molecular target: T6, SEQ ID NO 19, mutant of Zea mays bx9 glucosyl transferase (Zea mays, UniProt B4G072, A281K/A334K/L194V/M279F/S117V); assay: as above; conditions: herbicide mM: V 0.300, VI 0.250, VII 0.210; IV, VIII, XI, XXI, XX, XVIII, XVI, XV, XIV 0.200; others 1.000
T6 construct: His tag (C); made in house
Experimental: as §1, §2
(§7) The UDP-Glo™ reagents are made up and used according to the manufacturer's instructions. Thus, Nucleotide Detection Buffer and ATP are combined to make nucleotide detection reagent (NDR) dispensed into aliquots and frozen to be freshly thawed before use. […]
as §6

[7] = molecular target: T7, SEQ ID NO 23, mutant of Zea mays bx9 glucosyl transferase (Zea mays, UniProt B4G072, A334K/F21Y/L194C/M279F/S117V); assay: as above; conditions: lower block, concentration printed only in upper block: V 0.300, VII 0.210; IV, VIII, XI, XXI, XX, XVIII, XVI, XV, XIV 0.200; others 1.000 mM
T7 construct: His tag (C); made in house
Experimental: as §1, §2, §7, §6

[8] = molecular target: T8, SEQ ID NO 18, mutant of Zea mays bx9 glucosyl transferase (Zea mays, UniProt B4G072, A281K/A334K/F21Y/M279F/S117V); assay: as above; conditions: herbicide mM: V 0.300, VI 0.250, VII 0.210; IV, VIII, XI, XXI, XX, XVIII, XVI, XV, XIV 0.200; others 1.000
T8 construct: His tag (C); made in house
Experimental: as §1, §2, §7, §6

Row | SMILES | Activity [1] [pmol/sec/pmol enzyme] | Activity [2] [pmol/sec/pmol enzyme] | Activity [3] [pmol/sec/pmol enzyme] | Activity [4] [pmol/sec/pmol enzyme] | Activity [5] [pmol/sec/pmol enzyme] | Activity [6] [pmol/sec/pmol enzyme] | Activity [7] [pmol/sec/pmol enzyme] | Activity [8] [pmol/sec/pmol enzyme] | kcat ([1]; 0.5 mM UDP-glucose, 25 C, pH 7.5, DMSO reagent blank as control) [s⁻¹]
1 | Cc1cnc(N2C(=O)N(C)C(C)C2O)cc1C(F)(F)F (stereo not drawn) [XX] | −0.001 | 0.698 | 0.563 | 0.338 | 0.244 | 0.662 | 0.249 | 0.751 | 
2 | C[C@@H]1C(O)N(c2cc(C(C)(C)C)on2)C(=O)[C@@H]1C (stereo partly drawn) [VIII] | −0.002 | 0.145 | 0.061 | 0.016 | 0.008 | 0.077 | 0.017 | 0.124 | 
3 | CC1C(=O)N(c2cc(C(F)(F)F)n(C)n2)C(O)[C@@H]1C (stereo partly drawn) [XVII] | −0.001 | 0.402 | 0.134 | 0.195 | 0.083 | 0.331 | 0.096 | 0.237 | 
4 | CN1CC(O)N(c2nnc(C(C)(C)C)s2)C1=O (stereo not drawn) [IX] | 0.017 | 0.068 | 0.071 | 0.012 | 0.035 | 0.070 | 0.013 | 0.115 | 0.036
5 | C[C@@H]1C(O)N(c2noc(C(C)(C)C)c2C#N)C(=O)[C@@H]1C (stereo partly drawn) [XIII] | −0.001 | 0.143 | 0.073 | 0.040 | 0.020 | 0.095 | 0.034 | 0.051 | 
6 | CN1CC(O)N(c2cc(C(F)(F)F)ncn2)C1=O (stereo not drawn) [XXV] | 0.000 | 0.758 | 0.458 | 0.170 | 0.106 | 0.581 | 0.449 | 0.553 | 
7 | CC1C(O)N(c2cc(C(F)(F)F)c(Cl)cn2)C(=O)N1C (stereo not drawn) [XIX] | −0.001 | 0.414 | 0.315 | 0.234 | 0.157 | 0.363 | 0.207 | 0.467 | 
